The assay has as its target Mitogen-activated protein kinase 1 (Homo sapiens, UniProt P28482). The assay can be described thus: Assay 1.
Sequence of Mitogen-activated protein kinase 1 (P28482 whole entry): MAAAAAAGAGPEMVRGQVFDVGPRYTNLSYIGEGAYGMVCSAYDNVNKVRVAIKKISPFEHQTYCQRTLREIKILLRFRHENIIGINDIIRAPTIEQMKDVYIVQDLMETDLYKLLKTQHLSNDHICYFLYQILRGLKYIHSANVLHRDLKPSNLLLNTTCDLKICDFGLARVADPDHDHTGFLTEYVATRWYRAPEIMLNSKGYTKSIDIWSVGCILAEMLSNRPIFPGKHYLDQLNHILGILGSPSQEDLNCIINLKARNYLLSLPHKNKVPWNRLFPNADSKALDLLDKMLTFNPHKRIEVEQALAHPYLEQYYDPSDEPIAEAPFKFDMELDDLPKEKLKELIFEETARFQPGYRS
The term Ki denotes the dissociation constant of the complex between target and ligand, obtained from inhibition or displacement. The molecule `Cc1cnc(Nc2cccc(Br)c2C)nc1-c1c[nH]c(C(=O)N[C@H](CO)c2ccccc2)c1` [erk000562] gave a Ki of 27 nM.

Molecule `O=C(N[C@H](CO)c1cccc(Cl)c1)c1cc(-c2ncnc(Nc3ccccc3)n2)c[nH]1` [erk000671] came in with a Ki of 2 nM. As for `CCOC(=O)CNCc1ccc(-c2c[nH]nc2-c2c[nH]c(C(=O)N[C@H](CO)c3ccc(F)c(Cl)c3)c2)cc1Cl` [erk000391], the figure is 18 nM.

Consider `Cc1cnc(NC[C@H](C)O)nc1-c1c[nH]c(C(=O)N[C@H](CO)c2ccccc2)c1` [erk000464], for which the Ki stood at 37 nM. Against the preceding molecule, the Ki is about 2.1-fold higher. In the case of `Cc1ccc([C@@H](CO)NC(=O)c2cc(-c3nc(Nc4cccc(F)c4)ncc3C)c[nH]2)cc1F` [erk000436] it was 6 nM; in that of `CCc1cnc(N)nc1-c1c[nH]c(C(=O)N[C@H](CO)c2ccccc2)c1` [erk000065], 288 nM. Molecule `Cc1cnc(Nc2ccccc2)nc1-c1c[nH]c(C(=O)N[C@H](COC(=O)CN)c2ccccc2)c1` [erk000645] came in with a Ki of 55 nM.

`O=C(NCc1ccc2c(c1)OCO2)c1cc(-c2ccnc(Nc3ccccc3)n2)c[nH]1` [erk000049] yielded an inhibition constant (Ki) of 269 nM. The molecule `Cc1cnc(NN2CCOCC2)nc1-c1c[nH]c(C(=O)N[C@H](CO)c2cccc(Cl)c2)c1` [erk000558] displayed an inhibition constant Ki of 2 nM. This Ki is about 130-fold lower than that of the molecule before. In the case of `Cc1ccc(Nc2ncc(C)c(-c3c[nH]c(C(=O)N[C@H](CO)c4cccc(C)c4)c3)n2)cc1` [erk000586] it was 2 nM. Regarding `CC[C@@H](CO)Nc1ncc(C)c(-c2c[nH]c(C(=O)N(C)[C@H](CO)c3cccc(Cl)c3)c2)n1` [erk000709], the affinity, expressed as Ki, was 2 nM. On to `COc1ccccc1Nc1ncc(C)c(-c2c[nH]c(C(=O)N[C@H](CO)c3ccccc3)c2)n1` [erk000446], for which the Ki is 68 nM.

Molecule `CC[C@@H](CO)Nc1ncc(C)c(-c2c[nH]c(C(=O)N[C@H](COC(=O)OC(C)C)c3cccc(Cl)c3)c2)n1` [erk000693] returned an inhibitory constant (Ki) of 37 nM. As for `Cc1cnc(Nc2nc(N3CCCCC3)nc3ccccc23)nc1-c1c[nH]c(C(=O)NCc2ccccc2)c1` [erk000377], the figure is 2090 nM; as for `CN(C)c1sc(C#N)c2c1-c1nc(Nc3cccc(O)c3)ncc1CC2` [erk000499], 40 nM. As for `Cc1cnc(NOCC(C)C)nc1-c1c[nH]c(C(=O)N[C@H](CO)c2cccc(Cl)c2)c1` [erk000597], the figure is 14 nM; as for `Cc1cnc(Nc2ccccc2)nc1-c1c[nH]c(C(=O)NCc2ccc(F)c(Cl)c2)c1` [erk000398], 25 nM; as for `Cc1cnc(N[C@H]2CCC[C@H]2O)nc1-c1c[nH]c(C(=O)N[C@H](CO)c2cccc(Cl)c2)c1` [erk000612], 7 nM. In the case of `CCONc1ncc(C)c(-c2c[nH]c(C(=O)N[C@H](CO)c3cccc(Cl)c3)c2)n1` [erk000582], affinity was put at a Ki of 6 nM. In the case of `Cc1ncc(C)c(-c2c[nH]c(C(=O)N[C@H](CO)c3ccccc3)c2)n1` [erk000502] it was 257 nM. Take `Cc1cnc(N[C@H]2CCOC2)nc1-c1cc(C(=O)N[C@H](CO)c2ccccc2)n(C)c1` [erk000704]: the inhibition constant Ki stood at 3 nM. Take `CNc1ncc(C)c(-c2c[nH]c(C(=O)NCc3ccc(F)c(Cl)c3)c2)n1` [erk000393]: affinity was put at a Ki of 282 nM. As for `CC(=O)OC[C@H](C)Nc1ncc(C)c(-c2c[nH]c(C(=O)N[C@H](COC(C)=O)c3cccc(Cl)c3)c2)n1` [erk000682], the figure is 331 nM; as for `Cc1cnc(NN(C)C)nc1-c1c[nH]c(C(=O)N[C@H](CO)c2cccc(Cl)c2)c1` [erk000648], 26 nM.

Take `CCONc1ncc(C)c(-c2cc(C(=O)N[C@H](CO)c3cccc(Cl)c3)n(C)c2)n1` [erk000701]: the affinity, expressed as Ki, was 13 nM. This Ki is about 2-fold lower than that of the molecule before. As for `O=C(c1cc(-c2n[nH]cc2-c2cc(Cl)cc(Cl)c2)c[nH]1)N1CCOCC1` [erk000124], the figure is 813 nM. `COC[C@@H]1CCCN1Nc1ncc(C)c(-c2c[nH]c(C(=O)N[C@H](CO)c3cccc(Cl)c3)c2)n1` [erk000622] yielded an inhibition constant Ki of 9 nM. As for `Cc1cnc(N)nc1-c1c[nH]c(C(=O)NCc2ccc(Cl)cc2Cl)c1` [erk000055], the figure is 6760 nM.

(Values after BindingDB's records for aid1799744 (Csar, 2012).)
